One data set deals with gastric secretion. Put plainly: inhibition of gastric secretion, pylorus ligature technique (Shay et al.), gastric antisecretory activity. The format is in vivo, Sprague-Dawley male rats. Conditions: rat; intraduodenal at the time of pylorus ligature; 4 hours; approximate ED50; read-out: Gastric anti-secretory activity ED50 i.d. From the text: (§1) The compounds of the present invention are active on the gastroenteric system, in particular they are endowed with anti-ulcerogenic and gastric anti-secretory activity and are therefore useful in therapy, for example in the prevention and treatment of peptic, e.g. duodenal, gastric and exophageal, ulcers and to inhibit gastric acid secretion. The compounds of the invention are also useful for reducing the undesirable gastrointestinal sideeffects resulting from systemic administration of antiinflammatory prostaglandin synthetase inhibitors and may be, therefore, used for this purpose in association with them. […] Six Sprague-Dawley male rats (100-120 g) fasted 24 hours were used for the experiment: a square flexible small-mesh were netting was used for the immobilization and 4 hours after the immobilization the rats were sacrificed, their stomachs were removed and the lesions counted under a dissecting microscope. […] Gastric antisecretory activity was evaluated in rats by the pylorus ligature technique. […] Four hours after the ligature the rats were sacrificed, the stomach secretion was collected and centrifuged at 3500 r.p.m. for 10 minutes, and the volume, less sediment, was determined.
The amount of the free hydrochloric acid in the gastric juice was determined by titration against 0.01N sodium hydroxide to pH 7.0 on the pH-meter.

The subject of another data set is restraint ulcers. As to the kind of experiment: inhibition of restraint ulcers in rats (Bonfils et al.), anti-ulcerogenic activity. In kind it is in vivo, Sprague-Dawley male rats. Conditions: po; rat; p.o. one hour before immobilization; lesions counted 4 hours after immobilization; approximate ED50; read-out: Antiulcerogenic activity ED50 p.o.
Source text: as §1

The nature of data set [1]: approximate acute toxicity (LD50), single administration. Conditions: in vivo, po; mouse; per os; single administration of increasing doses; measured on the seventh day. Here is the method:
In view of their high therapeutic index, the compounds of the invention can be used safely in medicine. For example, the approximate acute toxicity (LD50) of the compound 1-phenyl-5-trans-[2-(3-pyridyl)-ethenyl]-1H,7H-pyrazolo [1,5-a]pyrimidine-7-one (FCE 21542) in the mouse, determined by single administration of increasing doses and measured on the seventh day after the day of treatment, is higher than 400 mg/kg per os. Analogous toxicity data have been found for other compounds of the invention. The compounds of the invention can be administered in a variety of dosage forms, e.g. orally, in the form of tablets, capsules, sugar or film coated tablets, liquid solutions or suspensions, rectally, in the form of suppositories, parenterally, e.g. intramuscularly, or by intravenous injection or infusion. The dosage depends on the age, weight, conditions of the patient and administration route; for example the dosage adopted for oral administration to adult humans may range from about 50 to about 200 mg pro dose, from 1 to 5 times daily. The invention includes also pharmaceutical compositions comprising a compound of the invention in association with a pharmaceutically acceptable excipient (which can be a carrier or diluent).

What is called ED50 is the midpoint of the dose-response relation. What is called LD50 is the dose expected to kill half of the subjects tested. A high value points to lower toxicity.

A value given as a limit tells only on which side of the number the result lay.

For `O=c1cc(/C=C/c2cccnc2)nc2ccn(-c3ccccc3)n12` [FCE 21542, 1-phenyl-5-trans-[2-(3-pyridyl)-ethenyl]-1H,7H-pyrazolo[1,5-a]pyrimidine-7-one], the median effective dose (ED50) in the data set with gastric secretion is around 3.2 mg/kg; in the data set on restraint ulcers, around 7 mg/kg. The compound further yielded a median lethal dose (LD50) at 168 h in data set [1] above 400 mg/kg.

Values taken from patent US4490376A, “Substituted ethenyl derivatives of 1H-pyrazolo-[1,5-a]pyrimidine having gastroenteric activity, compositions thereof, and methods of using the same” (Farmitalia Carlo Erba S.p.A, priority 1982, dated 1984).
